Experimental data: BindingDB's records for doi:10.1016/S0960-894X(01)80110-4 (1994)

Assay: Activity against thromboxane A2 receptor evaluated by aggregation of human platelets

| SMILES | EC50 [nM] |
| --- | --- |
| CCCCCC(O)/C=C/[C@@H]1[C@@H](C/C=C\CCCC(N)=O)[C@@H]2C[C@H]1OC(=O)O2 (stereo partly drawn) [(Z)-7-[(1R,5S,6R,7R)-7-((E)-3-Hydroxy-oct-1-enyl)-3-oxo-2,4-dioxa-bicyclo[3.2.1]oct-6-yl]-hept-5-enoic acid amide] | 3110 |
| CCCCCC(O)/C=C/[C@@H]1[C@@H](C/C=C\CCCC(=O)O)[C@@H]2C[C@H]1OC(=O)O2 (stereo partly drawn) [(Z)-7-[(1R,5S,6R,7R)-7-((E)-3-Hydroxy-oct-1-enyl)-3-oxo-2,4-dioxa-bicyclo[3.2.1]oct-6-yl]-hept-5-enoic acid] | 24 |
